# Source: patent US20120316186A1, “DEAZAPURINES USEFUL AS INHIBITORS OF JANUS KINASES” (priority 2006, published 2012)
# Legend:
# JAK3 = target: T1, JAK3 (Homo sapiens, UniProt P52333); test: JAK3 Inhibition Assay; assay type: biochemical; conditions: 1 μM poly(Glu)4Tyr, 5 μM ATP, 1 nM JAK3, 25° C.; read-out: JAK3 enzyme inhibition data (Ki)
# T1 sequence (P52333 1-1124): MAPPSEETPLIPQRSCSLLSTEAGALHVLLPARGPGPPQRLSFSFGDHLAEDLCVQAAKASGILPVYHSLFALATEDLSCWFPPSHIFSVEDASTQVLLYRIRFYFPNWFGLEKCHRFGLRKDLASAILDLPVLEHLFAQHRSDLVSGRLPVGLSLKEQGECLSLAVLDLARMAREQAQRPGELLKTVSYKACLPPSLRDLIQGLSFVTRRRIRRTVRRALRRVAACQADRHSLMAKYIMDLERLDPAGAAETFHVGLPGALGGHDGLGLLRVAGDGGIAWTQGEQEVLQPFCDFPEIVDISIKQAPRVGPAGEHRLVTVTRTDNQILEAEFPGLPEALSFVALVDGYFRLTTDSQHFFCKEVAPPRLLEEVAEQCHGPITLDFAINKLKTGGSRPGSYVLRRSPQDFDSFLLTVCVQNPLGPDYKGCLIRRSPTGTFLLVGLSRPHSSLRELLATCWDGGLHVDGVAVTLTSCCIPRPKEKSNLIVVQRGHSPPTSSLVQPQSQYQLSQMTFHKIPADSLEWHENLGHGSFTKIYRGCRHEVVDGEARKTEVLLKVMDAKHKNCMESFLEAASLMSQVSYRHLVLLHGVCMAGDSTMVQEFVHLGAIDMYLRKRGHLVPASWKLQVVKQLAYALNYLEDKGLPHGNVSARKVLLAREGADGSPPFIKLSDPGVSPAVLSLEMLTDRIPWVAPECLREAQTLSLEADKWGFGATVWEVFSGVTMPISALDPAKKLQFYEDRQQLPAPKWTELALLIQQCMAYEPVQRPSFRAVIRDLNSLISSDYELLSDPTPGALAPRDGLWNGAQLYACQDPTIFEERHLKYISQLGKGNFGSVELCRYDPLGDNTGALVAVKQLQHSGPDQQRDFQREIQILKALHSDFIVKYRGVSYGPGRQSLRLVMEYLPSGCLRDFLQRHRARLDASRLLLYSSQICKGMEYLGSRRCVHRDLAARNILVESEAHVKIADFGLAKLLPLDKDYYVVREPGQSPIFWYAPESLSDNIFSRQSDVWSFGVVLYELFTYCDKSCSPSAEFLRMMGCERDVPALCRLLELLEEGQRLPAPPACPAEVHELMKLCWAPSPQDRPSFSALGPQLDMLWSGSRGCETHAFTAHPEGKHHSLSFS
# Description: (§1) Compounds were screened for their ability to inhibit JAK3 using the assay shown below. Reactions were carried out in a kinase buffer containing 100 mM HEPES (pH 7.4), 1 mM DTT, 10 mM MgCl2, 25 mM NaCl, and 0.01% BSA. Substrate concentrations in the assay were 5 μM ATP (200 uCi/μmole ATP) and 1 μM poly(Glu)4Tyr. Reactions were carried out at 25° C. and 1 nM JAK3.
# (§2) To each well of a 96 well polycarbonate plate was added 1.5 μl of a candidate JAK3 inhibitor along with 50 μl of kinase buffer containing 2 μM poly(Glu)4Tyr and 10 μM ATP. This was then mixed and 50 μl of kinase buffer containing 2 nM JAK3 enzyme was added to start the reaction. After 20 minutes at room temperature (25° C.), the reaction was stopped with 50 μl of 20% trichloroacetic acid (TCA) that also contained 0.4 mM ATP. The entire contents of each well were then transferred to a 96 well glass fiber filter plate using a TomTek Cell Harvester. After washing, 60 μl of scintillation fluid was added and ^33P incorporation detected on a Perkin Elmer TopCount.
# JAK2 = JAK2 (Homo sapiens, UniProt O60674); test: JAK2 Inhibition Assay; assay type: biochemical; conditions: 15 μM poly(Glu)4Tyr, 12 μM ATP; read-out: JAK2 enzyme inhibition data (Ki)
# Description: as §1, §2
# The assays were as described above in Example 36 except that JAK-2 enzyme was used, the final poly(Glu)4Tyr concentration was 15 μM, and final ATP concentration was 12 μM.
# Chain of JAK2 (O60674 whole entry): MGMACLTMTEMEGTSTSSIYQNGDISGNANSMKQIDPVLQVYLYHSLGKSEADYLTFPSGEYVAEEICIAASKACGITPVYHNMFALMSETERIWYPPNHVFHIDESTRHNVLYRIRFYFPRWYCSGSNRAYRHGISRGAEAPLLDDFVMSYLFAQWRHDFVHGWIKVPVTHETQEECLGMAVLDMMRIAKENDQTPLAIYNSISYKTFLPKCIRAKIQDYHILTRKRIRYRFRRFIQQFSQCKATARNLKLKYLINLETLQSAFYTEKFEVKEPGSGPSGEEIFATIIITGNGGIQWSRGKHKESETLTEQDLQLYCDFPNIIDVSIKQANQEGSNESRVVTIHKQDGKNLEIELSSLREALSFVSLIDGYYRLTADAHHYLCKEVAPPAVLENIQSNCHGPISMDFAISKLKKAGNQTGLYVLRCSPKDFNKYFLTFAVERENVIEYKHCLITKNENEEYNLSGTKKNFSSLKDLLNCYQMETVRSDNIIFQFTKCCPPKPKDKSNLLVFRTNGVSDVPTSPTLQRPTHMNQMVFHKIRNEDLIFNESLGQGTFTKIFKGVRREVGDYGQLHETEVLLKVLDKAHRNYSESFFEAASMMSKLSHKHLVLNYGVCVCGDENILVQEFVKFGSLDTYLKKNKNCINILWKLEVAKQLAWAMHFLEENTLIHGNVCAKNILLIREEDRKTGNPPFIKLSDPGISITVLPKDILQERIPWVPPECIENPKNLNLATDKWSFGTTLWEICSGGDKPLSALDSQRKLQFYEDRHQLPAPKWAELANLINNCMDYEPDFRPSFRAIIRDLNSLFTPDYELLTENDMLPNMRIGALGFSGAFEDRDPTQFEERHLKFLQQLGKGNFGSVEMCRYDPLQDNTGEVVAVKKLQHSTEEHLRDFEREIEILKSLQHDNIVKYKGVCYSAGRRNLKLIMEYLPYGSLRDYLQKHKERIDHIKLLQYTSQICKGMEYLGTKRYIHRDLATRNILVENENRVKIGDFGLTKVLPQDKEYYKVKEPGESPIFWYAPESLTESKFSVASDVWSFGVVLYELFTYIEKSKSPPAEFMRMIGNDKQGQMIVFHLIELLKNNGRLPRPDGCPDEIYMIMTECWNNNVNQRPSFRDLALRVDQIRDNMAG
Structure (SMILES),Ki (JAK3) [µM],Ki (JAK2) [µM]
CC(CC(=O)Nc1nc(-c2ncnc3[nH]ccc23)cs1)CC(C)(C)C (centres unmarked) [Compound 33],0.1 to 0.5,< 0.1
O=C(Nc1nc(-c2ncnc3[nH]ccc23)cs1)C1CCCOC1 (centres unmarked) [Compound 61],< 0.1,< 0.1
O=C(c1cc(-c2ncnc3[nH]ccc23)c[nH]1)N(CCC(F)(F)F)CC1CC1 [Compound 110],< 0.1,< 0.1
N#CCCN(C(=O)c1cc(-c2ncnc3[nH]ccc23)c[nH]1)C1CCCC1 [Compound 139],0.1 to 0.5,< 0.1
O=C(O)CC1(CC(=O)Nc2nc(-c3ncnc4[nH]ccc34)cs2)CCCC1 [Compound 143],0.1 to 0.5,0.1 to 0.5
O=C(O)C1CCCCC1C(=O)Nc1nc(-c2ncnc3[nH]ccc23)cs1 (centres unmarked) [Compound 144],0.1 to 0.5,0.1 to 0.5
O=C(Cc1ccccc1F)Nc1nc(-c2ncnc3[nH]ccc23)cs1 [Compound 156],0.1 to 0.5,< 0.1
